Reference: patent US6303317A, “Peptide probes and methods for making the same” (The Regents of the University of California, priority 1998, dated 2001)
Where no end group is shown, it is not given here.

System: APC protein
Test: Precipitation of APC from human colon cancer cell line lysates with biotinylated probe and streptavidin particles
Format: binding
Conditions: Western blot with APC antibody
Experimental: Precipitation experiments were carried out in order to determine whether the anti-APCp1 polypeptide probe was capable of detecting the low in vivo levels of APC which are typically present in normal and tumor cells. FIG. 7 is a schematic representation of the strategy used. Briefly, cell lines which produce a normal (i.e., full length human APC) and mutant (i.e., truncated human APC) were lysed, and the lysate combined with either biotinylated […] or biotinylated anti-APC monoclonal antibody. Molecules bound to the biotinylated probes were collected by binding to streptavidin, and the bound molecules released from the beads followed by SDS-PAGE, blotting of the gels, and detection with a biotinylated APC antibody. […] was detected on X-ray film. These steps are elaborated in more detail as follows.
Cells were harvested at 90-100% confluency. Cells were washed twice with ice-cold Dulbecco's phosphate buffered saline (Gibco BRL) containing magnesium chloride and calcium chloride, scraped into 15 mL ice cold D-PBS and pelleted in a Beckman J-6 centrifuge for 5 minutes at 4° C. The cell pellet was resuspended in 1 mL ice-cold phosphate buffer, pH 8, containing 0.2% NP-40, 400 μg/mL of Pefabloc SC (Boehringer Mannheim) and 10 μg/mL each of leupeptin, pepstatin, and aprotinin. […]

Chain of APC protein (P25054 2-55 limits assumed): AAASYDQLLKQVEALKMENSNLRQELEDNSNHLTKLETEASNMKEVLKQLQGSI

For “biotinylated-anti-APCp1: N-terminally biotinylated anti-APCp1 with Met, an additional Leu8Val mutation and Glu-Asp-Glu at the C-terminus (MAAKGDQVKKEVEALEYENSNLRKKLEDHKKKLTKLKTEISNAKKMLKQLYASIEDE; not fully specified (N-terminus); also: biotin attached via a long spacer arm)”, the “binding to / precipitation of wild-type and mutant APC at endogenous cell concentrations” value was “precipitated truncation mutants and full-length APC at endogenous cell concentrations”.
